According to patent US20240150293A1, “SPIROCYCLOHEXANE DERIVATIVES, PHARMACEUTICAL COMPOSITIONS CONTAINING THEM AND THEIR USES AS ANTI-APOPTOTIC INHIBITORS” (LES LABORATOIRES SERVIER, priority 2021, published 2024):
Like-named read-outs stand apart in the source and are kept apart here.

Experiments:
NCI-H929 cell lines = assay: In vitro cytotoxicity, CellTiter-Glo (CTG) assay (Example B, Method B); type: cell-based; details: Homo sapiens, NCI-H929, 48 h, NCI-H929 cells, 48 h incubation, read-out: C50
Procedure, shortened: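 NCI-H929 cells exposed to an 11-point compound series from 10 mM DMSO stocks (top final 30 μM) for 48 h at 37° C., 5% CO2. Viability measured as ATP by CellTiter-Glo luminescence; C50 is the concentration giving 50% cellular viability.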

[1] = system: AMO-1 multiple myeloma xenografts; assay: Anti-tumor activity in vivo (Example D); parameters: species or system SCID mice
Protocol: The anti-tumor activity of the compounds of the invention was evaluated using AMO-1 multiple myeloma xenografts.
1×10^7 cells were subcutaneously grafted into immunosuppressed SCID mice. 7-10 days later, when the tumor mass had reached an average volume of about 150 mm^3, mice were treated with the various compounds once a week for 2 weeks (per os, HEC 1%/Tween 80 99:1). Tumor size was measured three times per week using electronic calipers.
At the end of the treatment cycle (d9), tumor growth inhibition (TGI) was calculated using the formula: […]
wherein DTV (Delta Tumor Volume) at Dx was calculated as follows: […]
(Tumor Volume at Dx)−(Tumor Volume at Randomization).

[2] = target: Cy5-labelled Mcl1 (amino acids 171-321) C286S protein (UniProtKB Q07820) (Homo sapiens (Human), UniProt Q07820, C286S); assay: Inhibition of Mcl-1 by the fluorescence quenching assay (Example A, Method B); type: binding
Chain of Cy5-labelled Mcl1 (amino acids 171-321) C286S protein (Q07820 171-321 C286S): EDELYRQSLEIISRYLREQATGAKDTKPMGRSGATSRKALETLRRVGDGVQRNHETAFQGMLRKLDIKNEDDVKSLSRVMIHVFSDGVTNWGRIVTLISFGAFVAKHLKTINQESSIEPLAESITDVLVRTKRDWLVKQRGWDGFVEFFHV
Procedure, shortened: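 Cy5-labelled Mcl1 171-321 C286S (1 nM) quenched by TQ5WS-labelled PUMA peptide (10, 20 or 400 nM); displacement raises fluorescence (Ex 620/Em 680 nm). Buffer 10 mM HEPES, 150 mM NaCl, 0.05% Tween 20, pH 7.4, 5% DMSO; 2 h at room temperature, 11-point curves, IC50 converted to Ki (cKi/eKi).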

[3] = system: AMO-1 multiple myeloma xenograft; assay: Quantification of the cleaved form of PARP in vivo, per os (Example C); parameters: species or system SCID mice; details: single dose per os, tumors recovered 16 hours after dosing
Protocol: The ability of the compounds of the invention to induce apoptosis was evaluated in vivo using the AMO-1 multiple myeloma xenograft.
1×10^7 cells were subcutaneously grafted into immunosuppressed SCID mice. 12-14 days later, when tumors had reached the appropriate volume, mice (3 per group) were treated once with the various compounds (per os, HEC 1%/Tween 80 99:1). Tumor samples were recovered 16 hours after dosing and lysed. Cleared lysates were used for cleaved PARP quantification (as a marker of apoptosis induction) using the Meso Scale Discovery (MSD) Elisa platform test. Results are expressed as the ratio between cleaved PARP in treated mice over control mice.

[4] = system: H929 multiple myeloma tumor line; assay: In vitro cytotoxicity, MTT assay (Example B, Method A); type: cell-based; details: Homo sapiens, NCI-H929, 48 h, H929 cells, 48 hours exposure, read-out: C50
Protocol: The cytotoxicity studies were carried out on the H929 multiple myeloma tumor line.
The cells are distributed onto microplates and exposed to the test compounds for 48 hours. The cell viability is then quantified by a colorimetric assay, the Microculture Tetrazolium Assay (Carmichael et al, Cancer Res. 1987, 47, 939-942).
The results are expressed in C50 which means concentration corresponding to […] of effect/inhibition.

[5] = 30 mpk per os once a week for 2 weeks
[6] = 60 mpk per os once a week for 2 weeks
[7] = 120 mpk per os once a week for 2 weeks

Ki ([2]; Ki determined from IC50) | Ki [2] | Structure (SMILES) | IC50 (NCI-H929 cell lines) | % TGI (d9) [1, 5] | % TGI (d9) [1, 6] | % TGI (d9) [1, 7] | Cleaved PARP (fold to control) ([3]; 120 mpk) | IC50 [4] | Cleaved PARP (fold to control) ([3]; 30 mpk) | Cleaved PARP (fold to control) ([3]; 60 mpk)
0.355 nM |  | C[C@@H](COc1ccnc2c1[C@H](C)CCC2)CN1Cc2cc(F)ccc2[C@]12CC[C@@](Nc1cccc(Cl)c1)(C(=O)O)CC2 [Example 41, (1s,4S)-4-(3-chloroanilino)-5′-fluoro-2′-[(2R)-2-methyl-3-{[(5R)-5-methyl-5,6,7,8-tetrahydroquinolin-4-yl]oxy}propyl]-2′,3′-dihydrospiro[cyclohexane-1,1′-isoindole]-4-carboxylic acid] | 115 nM | 1% | 7.4% | 66.8% |  |  |  | 
0.294 nM |  | C[C@@H](COc1ccnc2c1[C@H](C)CCC2)CN1Cc2cc(F)ccc2[C@]12CC[C@@](Nc1ccc(F)c(Cl)c1)(C(=O)O)CC2 [Example 42, (1s,4S)-4-(3-chloro-4-fluoroanilino)-5′-fluoro-2′-[(2R)-2-methyl-3-{[(5R)-5-methyl-5,6,7,8-tetrahydroquinolin-4-yl]oxy}propyl]-2′,3′-dihydrospiro[cyclohexane-1,1′-isoindole]-4-carboxylic acid] |  |  | 25.8% | 114.1% | 5 fold to control | 33.9 nM |  | 
0.126 nM |  | C[C@@H](COc1ccnc2c1[C@H](C)CCC2)CN1Cc2cc3c(cc2[C@]12CC[C@@](Nc1cccc(Cl)c1)(C(=O)O)CC2)OCO3 [Example 44, (1s,4S)-4-(3-chloroanilino)-6′-[(2R)-2-methyl-3-{[(5R)-5-methyl-5,6,7,8-tetrahydroquinolin-4-yl]oxy}propyl]-6′,7′-dihydro-2′H-spiro[cyclohexane-1,5′-[1,3]dioxolo[4,5-f]isoindole]-4-carboxylic acid] | 53.4 nM |  |  |  | 1.4 fold to control |  | 0.7 fold to control | 0.7 fold to control
 | 0.109 nM | C[C@@H](COc1ccnc2c1[C@H](C)CCC2)C[C@H]1Cc2cc(F)ccc2[C@]12CC[C@@](Nc1cccc(Cl)c1)(C(=O)O)CC2 [Example 768, (1r,2′S,4S)-4-(3-chloroanilino)-5′-fluoro-2′-[(2R)-2-methyl-3-{[(5R)-5-methyl-5,6,7,8-tetrahydroquinolin-4-yl]oxy}propyl]-2′,3′-dihydrospiro[cyclohexane-1,1′-indene]-4-carboxylic acid] | 49.6 nM |  |  |  | 30.3 fold to control |  | 0.8 fold to control | 15.4 fold to control
 | 0.234 nM | COc1ccc2c(c1)[C@]1(CC[C@@](Nc3cccc(Cl)c3)(C(=O)O)CC1)[C@@H](C[C@@H](C)COc1ccnc3c1[C@H](C)CCC3)C2 [Example 781, (1r,2′S,4S)-4-(3-chloroanilino)-6′-methoxy-2′-[(2R)-2-methyl-3-{[(5R)-5-methyl-5,6,7,8-tetrahydroquinolin-4-yl]oxy}propyl]-2′,3′-dihydrospiro[cyclohexane-1,1′-indene]-4-carboxylic acid] | 82.3 nM | 76.4% | 107.8% |  |  |  | 11.6 fold to control | 4.5 fold to control
 | 0.0803 nM | CC(C)Oc1ccc2c(c1)[C@]1(CC[C@@](Nc3cccc(Cl)c3)(C(=O)O)CC1)[C@@H](C[C@@H](C)COc1ccnc3c1[C@H](C)CCC3)C2 [Example 786, (1r,2′S,4S)-4-(3-chloroanilino)-2′-[(2R)-2-methyl-3-{[(5R)-5-methyl-5,6,7,8-tetrahydroquinolin-4-yl]oxy}propyl]-6′-[(propan-2-yl)oxy]-2′,3′-dihydrospiro[cyclohexane-1,1′-indene]-4-carboxylic acid] | 77.2 nM | 43.2% | 98.9% |  |  |  |  | 

Continued, compound first:

Structure (SMILES) | Ki ([2]; Ki determined from IC50) | Ki [2] | IC50 (NCI-H929 cell lines) | % TGI (d9) [1, 5] | % TGI (d9) [1, 6] | % TGI (d9) [1, 7] | Cleaved PARP (fold to control) ([3]; 120 mpk) | IC50 [4] | Cleaved PARP (fold to control) ([3]; 30 mpk) | Cleaved PARP (fold to control) ([3]; 60 mpk)
Cc1c(Cl)cccc1N[C@]1(C(=O)O)CC[C@]2(CC1)c1ccccc1C[C@@H]2C[C@@H](C)COc1ccnc2c1[C@H](C)CCC2 [Example 708, (1r,2′S,4S)-4-(3-chloro-2-methylanilino)-2′-[(2R)-2-methyl-3-{[(5R)-5-methyl-5,6,7,8-tetrahydroquinolin-4-yl]oxy}propyl]-2′,3′-dihydrospiro[cyclohexane-1,1′-indene]-4-carboxylic acid] |  | 0.362 nM | 107 nM |  |  |  | 12.6 fold to control |  |  | 
COCCOc1ccc2c(c1)[C@]1(CC[C@@](Nc3cccc(Cl)c3)(C(=O)O)CC1)[C@@H](C[C@@H](C)COc1ccnc3c1[C@H](C)CCC3)C2 [Example 794, (1r,2′S,4S)-4-(3-chloroanilino)-6′-(2-methoxyethoxy)-2′-[(2R)-2-methyl-3-{[(5R)-5-methyl-5,6,7,8-tetrahydroquinolin-4-yl]oxy}propyl]-2′,3′-dihydrospiro[cyclohexane-1,1′-indene]-4-carboxylic acid] |  | 0.213 nM | 44.5 nM |  | 70.2% | 51.5% | 12.1 fold to control |  |  | 6.8 fold to control
COC(C)(C)c1ccc2c(c1)[C@]1(CC[C@@](Nc3cccc(Cl)c3)(C(=O)O)CC1)[C@@H](C[C@@H](C)COc1ccnc3c1[C@H](C)CCC3)C2 [Example 866, (1r,2′S,4S)-4-(3-chloroanilino)-6′-(2-methoxypropan-2-yl)-2′-[(2R)-2-methyl-3-{[(5R)-5-methyl-5,6,7,8-tetrahydroquinolin-4-yl]oxy}propyl]-2′,3′-dihydrospiro[cyclohexane-1,1′-indene]-4-carboxylic acid] |  | 0.0213 nM |  |  |  |  | 6.3 fold to control |  | 1.2 fold to control | 6.5 fold to control
C[C@@H](COc1ccnc2c1[C@H](C)CCC2)C[C@H]1Cc2cc3c(cc2[C@]12CC[C@@](Nc1cccc(Cl)c1)(C(=O)O)CC2)OCC1(CCC1)CO3 [Example 995, (1″r,4″S,8′S)-4″-(3-chloroanilino)-8′-[(2R)-2-methyl-3-{[(5R)-5-methyl-5,6,7,8-tetrahydroquinolin-4-yl]oxy}propyl]-8′,9′-dihydro-2′H,4′H-dispiro[cyclobutane-1,3′-indeno[5,6-b][1,4]dioxepine-7′,1″-cyclohexane]-4″-carboxylic acid] |  | 0.0885 nM | 108 nM |  |  |  |  |  |  | 
C[C@@H](COc1ccnc2c1[C@H](C)CCC2)C[C@H]1Cc2cc3c(cc2[C@]12CC[C@@](Nc1cccc(Cl)c1)(C(=O)O)CC2)OCC(F)(F)CO3 [Example 996, (1r,4S,8′S)-4-(3-chloroanilino)-3′,3′-difluoro-8′-[(2R)-2-methyl-3-{[(5R)-5-methyl-5,6,7,8-tetrahydroquinolin-4-yl]oxy}propyl]-3′,4′,8′,9′-tetrahydro-2′H-spiro[cyclohexane-1,7′-indeno[5,6-b][1,4]dioxepine]-4-carboxylic acid] |  | 0.028 nM | 84.5 nM |  |  |  |  |  |  | 
CC(C)[C@@H]1CCOc2cc3c(cc2O1)C[C@H](C[C@@H](C)COc1ccnc2c1[C@H](C)CCC2)[C@]31CC[C@](Nc2cccc(Cl)c2)(C(=O)O)CC1 [Example 997, (1r,2′S,4S,8′S)-4-(3-chloroanilino)-8′-[(2R)-2-methyl-3-{[(5R)-5-methyl-5,6,7,8-tetrahydroquinolin-4-yl]oxy}propyl]-2′-(propan-2-yl)-3′,4′,8′,9′-tetrahydro-2′H-spiro[cyclohexane-1,7′-indeno[5,6-b][1,4]dioxepine]-4-carboxylic acid] |  | 4.15 nM | 965 nM |  |  |  |  |  |  | 
CC(C)[C@@H]1CCOc2cc3c(cc2O1)[C@]1(CC[C@@](Nc2cccc(Cl)c2)(C(=O)O)CC1)[C@@H](C[C@@H](C)COc1ccnc2c1[C@H](C)CCC2)C3 [Example 998, (1r,4S,4'S,8′S)-4-(3-chloroanilino)-8′-[(2R)-2-methyl-3-{[(5R)-5-methyl-5,6,7,8-tetrahydroquinolin-4-yl]oxy}propyl]-4′-(propan-2-yl)-3′,4′,8′,9′-tetrahydro-2′H-spiro[cyclohexane-1,7′-indeno[5,6-b][1,4]dioxepine]-4-carboxylic acid] |  | 0.106 nM | 63.1 nM |  |  |  |  |  |  | 
